Measurements published in ChEMBL document CHEMBL1201862, “PubChem BioAssay data set” (2004).
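Step 1: Grow cells in 96-well plates. Step 2: Expose to compound for 48 hours at 5 concentrations. Step 3: Interpolate endpoints linearly; if unreached, use highest concentration. At the GI50, growth is halved.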 Active and inactive are the calls of the source. No stated cut-off is given here; in the data, active = GI50 up to about 1.1 µM and inactive = higher.

What was measured:
Assay in all cases: NCI tumour cell line growth inhibition, 48 h
[1] = tested on: 786-0
[2] = tested on: A498
[3] = tested on: A549
[4] = tested on: ACHN
[5] = tested on: BT-549
[6] = tested on: CAKI-1
[7] = tested on: CCRF-CEM
[8] = tested on: COLO 205
[9] = tested on: DU-145
[10] = tested on: EKVX
[11] = tested on: HCC 2998
[12] = tested on: HCT-116
[13] = tested on: HCT-15
[14] = tested on: HL-60
[15] = tested on: HOP-62
[16] = tested on: HOP-92
[17] = tested on: HT-29
[18] = tested on: Hs-578T
[19] = tested on: IGROV-1
[20] = tested on: KM12
[21] = tested on: LOX IMVI
[22] = tested on: M14
[23] = tested on: MCF7
[24] = tested on: MDA-MB-231
[25] = tested on: MDA-MB-435
[26] = tested on: MDA-N
[27] = tested on: NCI-H23
[28] = tested on: NCI-H522
[29] = tested on: NCI/ADR-RES
[30] = tested on: OVCAR-3
[31] = tested on: OVCAR-4
[32] = tested on: OVCAR-5
[33] = tested on: OVCAR-8
[34] = tested on: PC-3
[35] = tested on: SF-268
[36] = tested on: SF-295
[37] = tested on: SF-539
[38] = tested on: SK-MEL-28
[39] = tested on: SK-MEL-2
[40] = tested on: SK-MEL-5
[41] = tested on: SK-OV-3
[42] = tested on: SN12C
[43] = tested on: SNB-19
[44] = tested on: SW-620
[45] = tested on: T47D
[46] = tested on: TK-10
[47] = tested on: U-251
[48] = tested on: UACC-257
[49] = tested on: UACC-62
[50] = tested on: UO-31
[51] = tested on: K562
[52] = tested on: MOLT-4
[53] = tested on: Malme-3M
[54] = tested on: NCI-H460
[55] = tested on: RPMI-8226
[56] = tested on: SR

SMILES: Nc1ncnc2c1cnn2Cc1cn(COCC(O)CO)nn1 (stereo not drawn)
- GI50 [1]: > 100 µM (inactive)
- GI50 [2]: > 100 µM (inactive)
- GI50 [3]: > 100 µM (inactive)
- GI50 [4]: > 100 µM (inactive)
- GI50 [5]: > 100 µM (inactive)
- GI50 [6]: > 100 µM (inactive)
- GI50 [7]: > 100 µM (inactive)
- GI50 [8]: > 100 µM (inactive)
- GI50 [9]: > 100 µM (inactive)
- GI50 [10]: > 100 µM (inactive)
- GI50 [11]: > 100 µM (inactive)
- GI50 [12]: > 100 µM (inactive)
- GI50 [13]: > 100 µM
- GI50 [14]: > 100 µM (inactive)
- GI50 [15]: > 100 µM (inactive)
- GI50 [16]: > 100 µM (inactive)
- GI50 [17]: > 100 µM (inactive)
- GI50 [18]: 14.4 µM (inactive)
- GI50 [19]: > 100 µM (inactive)
- GI50 [20]: > 100 µM (inactive)
- GI50 [21]: > 100 µM (inactive)
- GI50 [22]: > 100 µM (inactive)
- GI50 [23]: > 100 µM (inactive)
- GI50 [24]: > 100 µM (inactive)
- GI50 [25]: > 100 µM (inactive)
- GI50 [26]: > 100 µM (inactive)
- GI50 [27]: > 100 µM (inactive)
- GI50 [28]: 16.1 µM (inactive)
- GI50 [29]: > 100 µM (inactive)
- GI50 [30]: > 100 µM (inactive)
- GI50 [31]: > 100 µM (inactive)
- GI50 [32]: > 100 µM (inactive)
- GI50 [33]: > 100 µM (inactive)
- GI50 [34]: > 100 µM (inactive)
- GI50 [35]: 18.1 µM (inactive)
- GI50 [36]: > 100 µM (inactive)
- GI50 [37]: > 100 µM (inactive)
- GI50 [38]: > 100 µM (inactive)
- GI50 [39]: > 100 µM (inactive)
- GI50 [40]: > 100 µM (inactive)
- GI50 [41]: > 100 µM (inactive)
- GI50 [42]: > 100 µM (inactive)
- GI50 [43]: > 100 µM (inactive)
- GI50 [44]: > 100 µM (inactive)
- GI50 [45]: > 100 µM (inactive)
- GI50 [46]: > 100 µM (inactive)
- GI50 [47]: > 100 µM (inactive)
- GI50 [48]: > 100 µM (inactive)
- GI50 [49]: > 100 µM (inactive)
- GI50 [50]: > 100 µM (inactive)

SMILES: N[C@@H](CCC(=O)NC(Cc1ccccc1)C(=O)NCP(=O)(O)O)C(=O)O (stereo partly drawn)
- GI50 [1]: > 100 µM (inactive)
- GI50 [2]: > 100 µM (inactive)
- GI50 [3]: > 100 µM (inactive)
- GI50 [4]: > 100 µM (inactive)
- GI50 [5]: 61.8 µM (inactive)
- GI50 [8]: > 100 µM (inactive)
- GI50 [10]: > 100 µM (inactive)
- GI50 [11]: > 100 µM (inactive)
- GI50 [12]: > 100 µM (inactive)
- GI50 [13]: > 100 µM
- GI50 [14]: > 100 µM (inactive)
- GI50 [15]: > 100 µM (inactive)
- GI50 [17]: > 100 µM (inactive)
- GI50 [18]: > 100 µM (inactive)
- GI50 [19]: > 100 µM (inactive)
- GI50 [51]: > 100 µM (inactive)
- GI50 [20]: > 100 µM (inactive)
- GI50 [21]: > 100 µM (inactive)
- GI50 [23]: > 100 µM (inactive)
- GI50 [24]: > 100 µM (inactive)
- GI50 [25]: > 100 µM (inactive)
- GI50 [26]: > 100 µM (inactive)
- GI50 [52]: > 100 µM (inactive)
- GI50 [53]: > 100 µM (inactive)
- GI50 [27]: > 100 µM (inactive)
- GI50 [54]: > 100 µM (inactive)
- GI50 [28]: > 100 µM (inactive)
- GI50 [29]: > 100 µM (inactive)
- GI50 [30]: > 100 µM (inactive)
- GI50 [32]: > 100 µM (inactive)
- GI50 [33]: > 100 µM (inactive)
- GI50 [34]: > 100 µM (inactive)
- GI50 [55]: > 100 µM (inactive)
- GI50 [36]: 0.513 µM (active)
- GI50 [37]: > 100 µM (inactive)
- GI50 [38]: > 100 µM (inactive)
- GI50 [39]: > 100 µM (inactive)
- GI50 [40]: > 100 µM (inactive)
- GI50 [42]: > 100 µM (inactive)
- GI50 [43]: > 100 µM (inactive)
- GI50 [56]: > 100 µM (inactive)
- GI50 [44]: > 100 µM (inactive)
- GI50 [45]: > 100 µM (inactive)
- GI50 [46]: > 100 µM (inactive)
- GI50 [47]: > 100 µM (inactive)
- GI50 [48]: > 100 µM (inactive)
- GI50 [49]: > 100 µM (inactive)
- GI50 [50]: > 100 µM (inactive)
